Where “and” joins values, the source holds several entries; their conditions need not be identical. Identical values can stand only once. Counter-ions that a name gives are not always drawn. Like-named read-outs stand apart in the source and are kept apart here.
Legend:
[1] = molecular target: T1, butyrylcholinesterase (BChE, from equine serum) (Equus caballus, UniProt P81908); experiment: Butyrylcholinesterase inhibition, Ellman's method; assay type: biochemical; conditions: for % Inhibition of BChE / inhibition at 50 µM: at 50 µM compound
T1 construct: Butyrylcholinesterase (from equine serum) was bought from Sigma; purchased Sigma; host or cells: equine serum
T1 sequence (P81908 whole entry): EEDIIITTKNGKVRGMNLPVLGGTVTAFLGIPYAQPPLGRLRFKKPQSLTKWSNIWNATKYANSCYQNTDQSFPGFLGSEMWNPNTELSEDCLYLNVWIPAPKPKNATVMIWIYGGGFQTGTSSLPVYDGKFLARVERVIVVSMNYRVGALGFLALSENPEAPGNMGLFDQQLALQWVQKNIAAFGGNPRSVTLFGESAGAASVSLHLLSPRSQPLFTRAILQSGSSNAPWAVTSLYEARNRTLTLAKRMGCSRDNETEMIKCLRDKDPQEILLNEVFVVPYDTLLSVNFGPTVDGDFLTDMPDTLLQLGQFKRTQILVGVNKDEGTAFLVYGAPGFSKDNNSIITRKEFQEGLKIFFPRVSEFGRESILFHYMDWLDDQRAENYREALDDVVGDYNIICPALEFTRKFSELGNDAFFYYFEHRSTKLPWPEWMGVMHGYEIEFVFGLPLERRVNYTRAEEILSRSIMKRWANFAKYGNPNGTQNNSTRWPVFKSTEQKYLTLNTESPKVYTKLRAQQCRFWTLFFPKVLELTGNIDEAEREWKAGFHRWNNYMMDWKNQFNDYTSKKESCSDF

[2] = molecular target: T2, acetylcholinesterase (AChE, from Electrophorus electricus) (Electrophorus electricus, UniProt O42275); experiment: Acetylcholinesterase inhibition, Ellman's method; assay type: biochemical; conditions: for % Inhibition of AChE / inhibition at 50 µM: at 50 µM compound
T2 construct: purchased Fluka
T2 sequence (O42275 24-633): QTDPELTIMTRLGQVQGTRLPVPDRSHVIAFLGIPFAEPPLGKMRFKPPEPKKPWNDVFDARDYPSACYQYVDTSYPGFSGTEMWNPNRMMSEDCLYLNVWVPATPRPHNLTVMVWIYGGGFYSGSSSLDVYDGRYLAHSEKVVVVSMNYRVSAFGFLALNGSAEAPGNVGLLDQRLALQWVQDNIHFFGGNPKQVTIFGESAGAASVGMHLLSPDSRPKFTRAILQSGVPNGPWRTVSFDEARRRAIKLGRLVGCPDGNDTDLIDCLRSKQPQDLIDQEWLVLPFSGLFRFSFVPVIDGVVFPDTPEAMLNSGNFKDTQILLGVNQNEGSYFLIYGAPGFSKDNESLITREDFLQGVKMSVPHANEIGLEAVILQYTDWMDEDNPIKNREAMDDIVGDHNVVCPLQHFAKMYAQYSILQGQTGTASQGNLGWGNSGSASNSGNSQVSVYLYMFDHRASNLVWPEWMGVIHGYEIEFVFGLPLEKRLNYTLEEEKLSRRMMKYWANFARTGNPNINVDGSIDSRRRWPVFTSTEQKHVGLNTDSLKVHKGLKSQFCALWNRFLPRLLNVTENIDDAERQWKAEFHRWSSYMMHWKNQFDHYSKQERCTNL

[3] = tested on: acetylcholinesterase (AChE); conditions: Figure 1, cited from earlier work

| Compound | inhibition at 50 µM [1] [%] | inhibition at 50 µM [2] [%] | also measured |
| --- | --- | --- | --- |
| 1-(5-Deoxy-3-O-dodecyl-α-D-xylofuranos-5-yl)-3,7-dimethyl-3,7-dihydro-1H-purine-2,6-dione [Compound 18] | – | – | % Inhibition of BChE [1]: 19.6%; % Inhibition of AChE [2]: 14.5% |
| CO[C@H]1O[C@H](Cn2c(=O)c3c(ncn3C)n(C)c2=O)[C@@H](OC(C)=O)[C@H](OC(C)=O)[C@H]1OC(C)=O [A] | – | – | inhibition of AChE (in words) ([3]; theobromine 6′-isonucleoside): good inhibitory effect |
| CC(=O)O[C@H]1C(NS(C)(=O)=O)O[C@H](Cn2c(=O)c3c(ncn3C)n(C)c2=O)[C@@H]1OCc1ccccc1 (some centres unmarked) [B] | – | – | inhibition of AChE (in words) ([3]; N-isonucleosidyl sulfonamide): micromolar and selective inhibition of AChE |
| CCCCCCCCCCCCO[C@@H]1[C@H]2OC(C)(C)O[C@H]2O[C@@H]1Cn1c(=O)c2c(ncn2C)n(C)c1=O [Compound 3, 1-(5-Deoxy-3-O-dodecyl-1,2-O-isopropylidene-α-D-xylofuranos-5-yl)-3,7-dimethyl-3,7-dihydro-1H-purine-2,6-dione] | 11.7 | 13.8 | – |
| CCCCCCCCCCCCO[C@@H]1[C@H]2OC(C)(C)O[C@H]2O[C@@H]1Cn1cnc2c(N)ncnc21 [Compound 4, 9-(5-Deoxy-3-O-dodecyl-1,2-O-isopropylidene-α-D-xylofuranos-5-yl)adenine] | 11.9 | 16.3 | – |
| CCCCCCCCCCCCO[C@@H]1[C@H]2OC(C)(C)O[C@H]2O[C@@H]1Cn1cnc2c(Cl)nc(NC(C)=O)nc21 [Compound 5, 2-Acetamido-6-chloro-9-(5-deoxy-3-O-dodecyl-1,2-O-isopropylidene-α-D-xylofuranos-5-yl)purine] | 32.5 | 25.3 | – |
| CCCCCCCCCCCCO[C@@H]1[C@H]2OC(C)(C)O[C@H]2O[C@@H]1Cn1ccc(=O)[nH]c1=O [Compound 6, 1-(5-Deoxy-3-O-dodecyl-1,2-O-isopropylidene-α-D-xylofuranos-5-yl)uracil] | 28.5 | 22.5 | – |
| CCCCCCCCCCCCO[C@@H]1[C@H]2OC(C)(C)O[C@H]2O[C@@H]1Cn1c(=O)cc[nH]c1=O [Compound 7, 3-(5-deoxy-3-O-dodecyl-1,2-O-isopropylidene-α-D-xylofuranos-5-yl)uracil] | 7.5 | 17.8 | – |
| CCCCCCCCCCCCO[C@@H]1[C@H]2OC(C)(C)O[C@H]2O[C@@H]1Cn1ccc(=O)n(C[C@H]2O[C@@H]3OC(C)(C)O[C@@H]3[C@H]2OCCCCCCCCCCCC)c1=O [Compound 8, 1,3-bis-(5-deoxy-3-O-dodecyl-1,2-O-isopropylidene-α-D-xylofuranos-5-yl)uracil] | 32.8 | 26.1 | – |
| CCCCCCCCCCCCO[C@@H]1[C@H]2OC(C)(C)O[C@H]2O[C@@H]1COc1ccnc(OC[C@H]2O[C@@H]3OC(C)(C)O[C@@H]3[C@H]2OCCCCCCCCCCCC)n1 [Compound 9, 2,4-bis-O-(5-deoxy-3-O-dodecyl-1,2-O-isopropylidene-α-D-xylofuranos-5-yl)uracil] | 29.8 | 40.3 | Ki′ (uncompetitive inhibition), AChE [2]: 103.0 µM and 103.0 ± 4.3 µM; type of inhibition, AChE [2]: mixed-type; Ki ([2]; read-out: Ki (competitive inhibition), AChE): 17.5 ± 0.7 µM |
| CCCCCCCCCCCCO[C@H]1[C@@H](Cn2c(=O)c3c(ncn3C)n(C)c2=O)OC(O)[C@@H]1O (stereo partly drawn) [Compound 10, 1-(5-Deoxy-3-O-dodecyl-α,β-D-xylofuranos-5-yl)-3,7-dimethyl-3,7-dihydro-1H-purine-2,6-dione] | 22.9 | 2.6 | – |
| CCCCCCCCCCCCO[C@H]1[C@@H](Cn2c(=O)c3c(ncn3C)n(C)c2=O)OC(NS(C)(=O)=O)[C@@H]1OC(C)=O (stereo partly drawn) [Compound 12, N-[2-O-Acetyl-1,5-dideoxy-5-(3,7-dimethyl-3,7-dihydro-2,6-dioxo-1H-purin-1-yl)-3-O-dodecyl-α,β-D-xylofuranos-1-yl]methanesulfonamide] | 4.6 | 1 | inhibitory effect on BChE (in words) [1]: devoid of any inhibitory effects; inhibitory effect on AChE (in words) [2]: devoid of any inhibitory effects |
| CCCCCCCCCCCCO[C@@H]1[C@@H](OC(C)=O)[C@@H](N=[N+]=[N-])O[C@@H]1Cn1c(=O)c2c(ncn2C)n(C)c1=O [Compound 13-α, 1-(2-O-Acetyl-1-azido-1,5-dideoxy-3-O-dodecyl-α-D-xylofuranos-5-yl)-3,7-dimethyl-3,7-dihydro-1H-purine-2,6-dione] | 35 | 18.9 | inhibitory effect on BChE (in words) [1]: devoid of any inhibitory effects; inhibitory effect on AChE (in words) [2]: devoid of any inhibitory effects |
| COc1ccc2c3c1O[C@H]1C[C@@H](O)C=C[C@@]31CCN(C)C2 [Galantamine hydrobromide, galantamine hydrobromide, reference compound] | 86.3 | – | type of inhibition, BChE [1]: competitive |
| N-[2,4-Di-O-acetyl-1,6-dideoxy-6-(3,7-dimethyl-3,7-dihydro-2,6-dioxo-1H-purin-1-yl)-3-O-dodecyl-α,β-D-glucopyranos-1-yl]methanesulfonamide [Compound 22] | – | – | % Inhibition of BChE ([1]; 50 µM): 53% and 52.6%; % Inhibition of AChE [2]: 28.3% |

Reference: PMC6790002, “Synthesis and Biological Evaluation of Structurally Varied 5′-/6′-Isonucleosides and Theobromine-Containing N-Isonucleosidyl Derivatives” (Pharmaceuticals, 2019)
